Test results taken from ChEMBL document CHEMBL1201862, “PubChem BioAssay data set” (2004).
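48-hour exposure; five concentrations; linearly interpolated endpoints. GI50: concentration for 50% inhibition of growth.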 Activity calls are given as the source filed them. Cut-off read from the data, not from the text of the source: active = GI50 up to about 1.1 µM and inactive = higher.

What was measured:
Assay in all cases: NCI-60 cell line screen, 48 h
786-0 = test system: 786-0
A498 = test system: A498
A549 = test system: A549
ACHN = test system: ACHN
CAKI-1 = test system: CAKI-1
CCRF-CEM = test system: CCRF-CEM
COLO 205 = test system: COLO 205
DLD-1 = test system: DLD-1
DMS-114 = test system: DMS-114
DMS-273 = test system: DMS-273
EKVX = test system: EKVX
HCC 2998 = test system: HCC 2998
HCT-116 = test system: HCT-116
HCT-15 = test system: HCT-15
HL-60 = test system: HL-60
HOP-18 = test system: HOP-18
HOP-62 = test system: HOP-62
HOP-92 = test system: HOP-92
HT-29 = test system: HT-29
IGROV-1 = test system: IGROV-1
K562 = test system: K562
KM-20L2 = test system: KM-20L2
KM12 = test system: KM12
LOX IMVI = test system: LOX IMVI
LXFL 529 = test system: LXFL 529
M14 = test system: M14
M19-MEL = test system: M19-MEL
MOLT-4 = test system: MOLT-4
Malme-3M = test system: Malme-3M
NCI-H226 = test system: NCI-H226
NCI-H23 = test system: NCI-H23
NCI-H460 = test system: NCI-H460
NCI-H522 = test system: NCI-H522
OVCAR-3 = test system: OVCAR-3
OVCAR-4 = test system: OVCAR-4
OVCAR-5 = test system: OVCAR-5
OVCAR-8 = test system: OVCAR-8
RPMI-8226 = test system: RPMI-8226
SF-268 = test system: SF-268
SF-295 = test system: SF-295
SF-539 = test system: SF-539
SK-MEL-28 = test system: SK-MEL-28
SK-MEL-2 = test system: SK-MEL-2
SK-MEL-5 = test system: SK-MEL-5
SK-OV-3 = test system: SK-OV-3
SN12C = test system: SN12C
SNB-19 = test system: SNB-19
SNB-75 = test system: SNB-75
SNB-78 = test system: SNB-78
SR = test system: SR
SW-620 = test system: SW-620
TK-10 = test system: TK-10
U-251 = test system: U-251
UACC-257 = test system: UACC-257
UACC-62 = test system: UACC-62
UO-31 = test system: UO-31
XF498 = test system: XF498

Measured: GI50

O=C(CCN(C(=O)O)S(=O)(=O)c1ccc(NC(=O)c2ccccc2)cc1)NC1CCCCC1
inactive: 786-0 12.6 µM | A498 > 100 µM | A549 > 100 µM | ACHN > 100 µM | CAKI-1 > 100 µM | CCRF-CEM 27.6 µM | COLO 205 47.4 µM | DLD-1 62.5 µM | DMS-114 > 100 µM | DMS-273 21.7 µM | EKVX > 100 µM | HCC 2998 > 100 µM | HCT-116 > 100 µM | HL-60 30.3 µM | HOP-18 > 100 µM | HOP-62 > 100 µM | HOP-92 > 100 µM | HT-29 21.6 µM | IGROV-1 > 100 µM | K562 27.4 µM | KM-20L2 > 100 µM | KM12 > 100 µM | LOX IMVI > 100 µM | LXFL 529 > 100 µM | M14 > 100 µM | M19-MEL 59.7 µM | MOLT-4 21.4 µM | Malme-3M > 100 µM | NCI-H226 > 100 µM | NCI-H23 > 100 µM | NCI-H460 42.4 µM | NCI-H522 > 100 µM | OVCAR-3 > 100 µM | OVCAR-4 > 100 µM | OVCAR-5 > 100 µM | OVCAR-8 > 100 µM | RPMI-8226 16.5 µM | SF-268 > 100 µM | SF-295 > 100 µM | SF-539 > 100 µM | SK-MEL-28 > 100 µM | SK-MEL-2 > 100 µM | SK-MEL-5 > 100 µM | SK-OV-3 > 100 µM | SN12C > 100 µM | SNB-19 > 100 µM | SNB-75 > 100 µM | SNB-78 > 100 µM | SR 17.8 µM | SW-620 16.3 µM | TK-10 > 100 µM | U-251 36.3 µM | UACC-257 > 100 µM | UACC-62 > 100 µM | UO-31 > 100 µM | XF498 > 100 µM
47.6 µM: HCT-15
